The structures appear in SMILES notation.

One series deals with T1, recombinant cPLA2 (Homo sapiens, UniProt P47712).
T1 construct: purchased US Biological P4074-03R
T1 sequence (P47712 1-749): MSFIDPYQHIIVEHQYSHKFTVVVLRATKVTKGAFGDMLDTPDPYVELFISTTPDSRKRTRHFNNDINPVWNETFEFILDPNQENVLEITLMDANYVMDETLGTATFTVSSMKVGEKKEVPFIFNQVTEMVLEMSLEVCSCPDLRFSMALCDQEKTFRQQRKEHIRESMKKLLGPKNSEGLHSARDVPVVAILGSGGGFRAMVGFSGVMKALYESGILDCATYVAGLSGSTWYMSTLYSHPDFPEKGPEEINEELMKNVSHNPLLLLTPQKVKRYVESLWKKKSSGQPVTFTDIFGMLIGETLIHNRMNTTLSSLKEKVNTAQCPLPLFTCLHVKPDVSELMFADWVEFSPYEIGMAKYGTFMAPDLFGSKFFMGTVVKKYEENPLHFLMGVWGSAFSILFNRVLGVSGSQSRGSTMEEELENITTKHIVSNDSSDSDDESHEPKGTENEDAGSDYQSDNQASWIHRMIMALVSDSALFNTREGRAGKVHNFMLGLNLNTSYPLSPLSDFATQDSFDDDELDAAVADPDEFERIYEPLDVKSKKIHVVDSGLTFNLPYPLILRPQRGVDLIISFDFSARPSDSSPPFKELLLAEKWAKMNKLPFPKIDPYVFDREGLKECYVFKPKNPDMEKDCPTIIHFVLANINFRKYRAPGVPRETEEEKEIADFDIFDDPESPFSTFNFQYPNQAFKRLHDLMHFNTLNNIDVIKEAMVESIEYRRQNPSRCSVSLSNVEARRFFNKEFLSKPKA
In words: EnzChek phospholipase A2 fluorogenic assay (% activity) at 10 μM. It counts as biochemical. The settings on record: 10 μM compound; for remaining activity at 10 µM: 1 h, room temperature. The protocol: The compounds were evaluated with a fluorogenic PLA2 assay kit (EnzChek® Phospholipase A2 Assay Kit, Catalog No: E10217) at a standard 10 μM concentration. Potential inhibitors were determined by their ability to lower cPLA2 activity to a greater extent than 1a.
The assay was conducted according to the manufacturer’s instruction (E10217, Molecular Probes) with slight modification. Briefly, substrate solution was separately prepared by mixing 5 μL of DOPG, 5 μL of DOPC and 5 μL of substrate respectively in 1.5 mL of 1X phospholipase A2 reaction buffer. The mixture was vortexed vigorously for 3 min before allowing to stand at room temperature for 1 h. 48 μL of 1X phospholipase A2 reaction buffer were added into each well of a 96-wells plate. This was followed by addition of 1 μL of recombinant cPLA2 (P4074-03R, US Biological) and 1 μL of 1 mM of the respective compound dissolved in DMSO. The final concentration of the test compound achieved is 10 μM. The reaction was initiated by adding 50 μL of the substrate solution and incubating at room temperature for 1 h. Fluorescence was measured using a Varioskan plate reader (Thermo Scientific, MA, USA) by exciting at 485 nm, while fluorescence emission was detected at 515 nm. Positive control was performed when 1 μL of test compound was replaced by vehicle DMSO. % activity was expressed as the mean value of duplicate wells from three experiments. % activity was calculated by the following formula1 %activity=fluorescenceoftestedwell−background/fluorescenceofpostivecontrol−background

The nature of series [1]: PAMPA with porcine brain lipids (BBB permeation). The following applies: for order of Pe values of reference compounds: similar conditions. The protocol:
Thus to explore whether 2i is able to penetrate into the brain, we used PAMPA with porcine brain lipids as the lipid barrier. […] A minimum Pe of […] × 10^−6 cm/s has been cited as the threshold for permeability across the blood brain barrier.
The Parallel Artificial Membrane Permeability Assay (PAMPA) was used to determine the effective permeability (Pe) of 2i. The method reported by Di et al.[53] was followed with modifications. Determinations were carried out on MultiScreen-IP PAMPA assay (donor) plates (MAIPNTR10) and MultiScreen Receiver Plates (MATRNPS50) from Millipore Corporation (USA) with porcine polar brain lipids (Avanti Polar Lipids Inc, Alabaster, AL) as the lipid barrier.
An aliquot (5 µL) of 2% porcine brain lipids in dodecane (ReagentPlus®, Sigma Aldrich, USA) was dispensed into the donor well. A stock solution (5 mM) of 2i prepared in DMSO was diluted with 1x phosphate buffer (PBS, pH 7.4) to give a 50 µM solution. An aliquot (300 µL) of the solution was dispensed into the donor well and an equal volume of buffer (1xPBS with 1% DMSO) was added to the corresponding acceptor well. The donor and acceptor plates were assembled, the unit was placed in a humidified box and gently agitated on a mini shaker at room temperature (25 °C) for 16 h. After this time, aliquots (200 µL) were withdrawn from the donor and acceptor wells, diluted separately to 1 mL with PBS, and quantified at λmax of 290 nm on a Shimadzu UV-1800 Spectrophotometer.
300 µL aliquots of stock solutions (500 µM, 1xPBS, 0.1% DMSO) were dispensed to donor wells as described earlier. Quantification was by UV at λmax of 272 nm (caffeine), 284 nm (carbamazepine), 330 nm (quinidine), 280 nm (dopamine) and 288 nm (propanolol). […] Pe was obtained from (3):3 Pe=−2.303×{VAVD/[(VA+VD)×A×t]}×log{1−[(VA+VD)/(VD.S)]×CA(t)/CD(0)} where VA and VD are the volumes of acceptor (cm^3) and donor (cm^3) wells respectively, A is the area of the surface area of the membrane (0.24 cm^2), t is the permeation time (s). The Pe of each compound was obtained from at least 3 separate experiments using 2 different stock solutions. For each independent determination, triplicates (3 wells) were run for each compound.
On the technique in general: PAMPA measures passive passage across an artificial lipid membrane.

A word on the inhibition: it is the drop in the measured response relative to a control, in per cent. One may read the remaining activity as what remains of the control signal, in per cent. As for `CCC/C=C\C/C=C\C/C=C\C/C=C\CCCCC(=O)Nc1cccc(C(=O)O)c1` [2j], at recombinant cPLA2, the inhibition at 10 µM is 83.5% and the remaining activity at 10 µM came out at 16.5 ± 1.2%.
For the compound `C=C[C@H]1C[N@@]2CC[C@H]1C[C@@H]2[C@@H](O)c1ccnc2ccc(OC)cc12` [quinidine], the “order of Pe values of reference compounds” value (“order” for short) in series [1] was “propranolol > carbamazepine > quinidine > caffeine > dopamine”.
On to `CCCCC/C=C\C/C=C\C/C=C\C/C=C\CCCC(=O)C(F)(F)Cl` [1n], for which, on recombinant cPLA2, the inhibition at 10 µM was found to be 50.8% and the remaining activity at 10 µM amounted to 49.2 ± 4.5%.
For the compound `O=C1NC(=O)/C(=C/c2ccc(C(=O)NC[C@@H]3C[C@@H](SC(c4ccccc4)(c4ccccc4)c4ccccc4)CN3C(=O)c3ccccc3C(=O)c3ccc(F)cc3F)cc2)S1` [pyrrophenone], the “effective permeability (Pe)” value in series [1] (porcine brain lipids, 16 h, 25 °C) is given as 2.00 ± 0.05 × 10^−6 cm/s.
Turning to `CCCCC/C=C\C/C=C\C/C=C\C/C=C\CCCC(=O)NCc1cccc(C(=O)O)c1` [2f], on recombinant cPLA2, the inhibition at 10 µM came to 64.4% and the remaining activity at 10 µM stood at 35.6 ± 2.1%.
Taken in the same sequence, the figures for `CCC/C=C\C/C=C\C/C=C\C/C=C\CCCCC(=O)NCCCCC(=O)O` [2h] were 56.4% and 43.6 ± 0.2%.
On to `CCCCC/C=C\C/C=C\C/C=C\C/C=C\CCCC(=O)Nc1ccc(C(N)=O)cc1` [2l], for which, at recombinant cPLA2, the inhibition at 10 µM worked out at 32.6% and the remaining activity at 10 µM is 67.4 ± 5.7%.
Consider `NC(=O)N1c2ccccc2C=Cc2ccccc21` [carbamazepine], for which the “order” value in series [1] is given as “propranolol > carbamazepine > quinidine > caffeine > dopamine”.
With `CCCCC/C=C\C/C=C\C/C=C\C/C=C\CCCC(=O)Nc1cccc(S(N)(=O)=O)c1` [2p, (5Z,8Z,11Z,14Z)-N-(3-sulfamoylphenyl)icosa-5,8,11,14-tetraenamide], at recombinant cPLA2, the inhibition at 10 µM came out at 46.1% and the remaining activity at 10 µM was determined as 53.9 ± 2.7%.
For the compound `CCCCC/C=C\C/C=C\C/C=C\C/C=C\CCCC(=O)Nc1ccccc1C(=O)O` [2o], on recombinant cPLA2, the inhibition at 10 µM turned out to be 34.5% and the remaining activity at 10 µM worked out at 65.5 ± 4%.
The like results for `CCCCC/C=C\C/C=C\C/C=C\C/C=C\CCCC(=O)NCCCCCC(=O)O` [2c] were, in that order, 59.1% and 40.9 ± 1.1%.
As to `CCCCC/C=C\C/C=C\C/C=C\C/C=C\CCCC(=O)Nc1cccc(C(N)=O)c1` [2m], on recombinant cPLA2, the inhibition at 10 µM is 42.5% and the remaining activity at 10 µM was found to be 57.5 ± 1.4%.
In the case of `CCCCC/C=C\C/C=C\C/C=C\C/C=C\CCCC(=O)NCCCCC(=O)O` [2b], at recombinant cPLA2, the inhibition at 10 µM turned out to be 73.3% and the remaining activity at 10 µM was found to be 26.7 ± 0.1%.
Taken in the same sequence, the figures for `CCCCC/C=C\C/C=C\C/C=C\C/C=C\CCCCCC(=O)NCCCCC(=O)O` [2k] were 62.3% and 37.7 ± 1.5%.
As for `CCCCCC/C=C\C/C=C\C/C=C\C/C=C\CCC(=O)C(F)(F)F` [1e], at recombinant cPLA2, the inhibition at 10 µM came to 59.5% and the remaining activity at 10 µM worked out at 40.5 ± 3.6%.
Consider `CCCCC/C=C\C/C=C\C/C=C\C/C=C\CCCC(=O)Nc1ccc(C(=O)O)cc1` [2n], for which, at recombinant cPLA2, the inhibition at 10 µM was found to be 66.7% and the remaining activity at 10 µM came out at 33.3 ± 0.9%.
On to `CCCCC/C=C\C/C=C\C/C=C\C/C=C\CCCC(=O)NCCCCCC(=O)OC` [20c], for which, at recombinant cPLA2, the inhibition at 10 µM stood at 15.2% and the remaining activity at 10 µM is 84.8 ± 1%.
The like results for `CCCCC/C=C\C/C=C\C/C=C\C/C=C\CCCC(=O)Nc1cccc(C(=O)O)c1` [2d] were, in that order, 86.8% and 13.2 ± 1.2%.
As for `CCCCC/C=C\C/C=C\C/C=C\C/C=C\CCCC(=O)C(F)F` [1o], on recombinant cPLA2, the inhibition at 10 µM came to 59.8% and the remaining activity at 10 µM is 40.2 ± 0.5%.
As to `CC(C)NCC(O)COc1cccc2ccccc12` (centres unmarked) [propranolol], in series [1], the “order” value is “propranolol > carbamazepine > quinidine > caffeine > dopamine”.
Regarding `CCCCC/C=C\C/C=C\C/C=C\C/C=C\CCCC(=O)NCCCC(=O)O` [2a], at recombinant cPLA2, the inhibition at 10 µM turned out to be 60.3% and the remaining activity at 10 µM came out at 39.7 ± 2.6%.
On to `CCC/C=C\C/C=C\C/C=C\C/C=C\CCCC(=O)C(F)(F)F` [1b], for which, at recombinant cPLA2, the inhibition at 10 µM was found to be 63% and the remaining activity at 10 µM amounted to 37 ± 3.9%.
With `CCCCC/C=C\C/C=C\C/C=C\C/C=C\CCCC(N)=O` [1m, (5Z,8Z,11Z,14Z)-icosa-5,8,11,14-tetraenamide], at recombinant cPLA2, the inhibition at 10 µM was determined as 39.3% and the remaining activity at 10 µM amounted to 60.7 ± 1.9%.
Regarding `CCCCCCCC/C=C\C/C=C\C/C=C\C/C=C\CCCC(=O)C(F)(F)F` [1c], at recombinant cPLA2, the inhibition at 10 µM worked out at 55% and the remaining activity at 10 µM turned out to be 45 ± 3.5%.
Turning to `NCCc1ccc(O)c(O)c1` [dopamine], the “order” value in series [1] is reported as “propranolol > carbamazepine > quinidine > caffeine > dopamine”.
Turning to `CCCCC/C=C\C/C=C\C/C=C\C/C=C\CCCC(=O)NCc1ccc(C(=O)O)cc1` [2e], on recombinant cPLA2, the inhibition at 10 µM is 74.2% and the remaining activity at 10 µM was 25.8 ± 0.1%.
Consider `Cn1c(=O)c2c(ncn2C)n(C)c1=O` [caffeine], for which the “order” value in series [1] is listed as “propranolol > carbamazepine > quinidine > caffeine > dopamine”.
On to `O=C(CCC/C=C\C/C=C\C/C=C\C/C=C\c1ccccc1)C(F)(F)F` [1d], for which, on recombinant cPLA2, the inhibition at 10 µM turned out to be 68.2% and the remaining activity at 10 µM is 31.8 ± 2%.
